Read-outs that look alike come from different tables or passages of the source.
Tests used:
Type in all cases: cell-based
[1] = test system: gamma secretase-dependent cleavage of the Notch protein (NotchΔE) in HeLa cells; test: Notch processing split-luciferase assay (Notch intracellular domain release); details: average of at least >4 replicates, read-out: Notch IC50 AVG
Description: Notch Processing: (Assay Quantitates Notch Intracellular Domain Release in Cell Lines):
A “split-luciferase” assay is used to measure inhibition of gamma secretase-dependent cleavage of the Notch protein. In this assay, HeLa cells were made to express a Notch protein lacking its extracellular domain (NotchΔE) fused to an N-terminal fragment of luciferase. The same cells also expressed a C-terminal fragment of luciferase fused to the immunoglobulin J kappa recombination signal sequence binding protein (RBP). Upon NotchΔE cleavage by gamma secretase, a Notch intracellular domain (NICD)-N terminal luciferase protein is generated which translocates to the nucleus and binds the RBP-C terminal luciferase fusion, bringing two independently nonfunctional halves of luciferase together to form a functional luciferase enzyme. The activity of luciferase in these cells is directly proportional to the amount of gamma secretase-cleaved Notch. Luciferase activity is determined by the standard techniques of luciferin addition to lysed cells and measurement of total luminescence.

[2] = molecular target: T1, pregnane X receptor (PXR) (Homo sapiens, UniProt O75469); test: PXR assay (CYP3A4-SEAP transactivation assay, PCSTA); details: for EC50: HEP G2 cells
T1 construct: expressed in transfected cells; host or cells: HEP G2
T1 sequence (O75469 1-434): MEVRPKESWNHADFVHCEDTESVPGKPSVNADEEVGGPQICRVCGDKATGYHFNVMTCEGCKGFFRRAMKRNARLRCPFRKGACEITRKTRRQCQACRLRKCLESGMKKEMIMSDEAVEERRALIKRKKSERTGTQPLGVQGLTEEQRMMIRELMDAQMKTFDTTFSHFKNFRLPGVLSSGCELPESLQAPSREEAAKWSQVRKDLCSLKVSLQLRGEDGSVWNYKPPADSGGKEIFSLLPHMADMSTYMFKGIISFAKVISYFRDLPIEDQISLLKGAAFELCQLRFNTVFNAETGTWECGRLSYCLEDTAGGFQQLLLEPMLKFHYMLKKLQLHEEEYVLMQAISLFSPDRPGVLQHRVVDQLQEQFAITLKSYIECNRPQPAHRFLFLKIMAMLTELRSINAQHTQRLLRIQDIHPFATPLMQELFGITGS
T1 sequence (P19793 1-462 partner): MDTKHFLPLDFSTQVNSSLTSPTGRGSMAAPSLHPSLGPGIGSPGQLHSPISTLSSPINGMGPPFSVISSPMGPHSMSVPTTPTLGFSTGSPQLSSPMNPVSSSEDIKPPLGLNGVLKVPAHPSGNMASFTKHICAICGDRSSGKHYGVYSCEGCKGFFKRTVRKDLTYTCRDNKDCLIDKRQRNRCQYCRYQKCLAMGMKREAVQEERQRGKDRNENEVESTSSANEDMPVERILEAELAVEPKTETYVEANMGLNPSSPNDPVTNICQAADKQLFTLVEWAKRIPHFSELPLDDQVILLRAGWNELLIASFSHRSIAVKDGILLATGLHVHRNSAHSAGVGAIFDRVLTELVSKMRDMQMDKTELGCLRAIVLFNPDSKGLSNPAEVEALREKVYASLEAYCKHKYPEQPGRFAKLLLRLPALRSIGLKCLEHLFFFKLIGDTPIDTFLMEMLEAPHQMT
Description: The CYP3A4-SEAP transactivation assay (PCSTA) effectively and rapidly evaluates compounds for their potential to induce cytochrome P450 CYP3A (human CYP3A4 or rat CYP3A1). The reporter construct contains regulatory regions from the CYP3A4 gene positioned just upstream of a secreted alkaline phosphatase (SEAP) gene. The human PXR nuclear receptor has been modified at the 5′-end so that methionine is the initiating amino acid replacing leucine found in the wild-type sequence. HEP G2 cells are transfected with the PXR plasmid (human or rat) and the reporter plasmid. Read-out for the induction of CYP3A4 consists of a SEAP calorimetric assay with para-nitro-phenyl phosphate (pNPP) as the substrate. Five point dose-response curves in duplicate are then generated with each point corresponding to the rate of conversion of pNPP to pNP by SEAP. For the human PCSTA, rifampicin is used as the positive control and 100% induction is based upon the maximum induction produced by rifampicin at 10 μM.

[3] = test system: Aβ40 peptides generated from SH-SY5Y cells expressing amyloid β protein (SP4CT cells); test: APP processing AlphaLisa assay, secreted Aβ40; details: average of at least >4 replicates, read-out: AB40 IC50 AVG
Protocol: (§1) APP Processing (Assay Quantitates Secreted Aβ Analytes from Cell Lines):
(§2) The effect of compounds on the abundance of Aβ40 and Aβ42 peptides generated from SH-SY5Y cells expressing amyloid β protein (SP4CT cells) was determined by an AlphaLisa™ assay. Analogous to an ELISA assay, generation of signal in this AlphaLisa™ assay requires “donor” and “acceptor” beads to be brought in close proximity by specific antibody recognition of either Aβ40 or Aβ42 peptides. The assay was accomplished by removing media from compound-treated SP4CT cells to two different microplates, followed by the addition of donor beads conjugated with streptavidin binding a biotinylated anti-amyloid β monoclonal antibody (clone 4G8). Acceptor beads directly conjugated with anti-Aβ40 monoclonal antibody (G210) were added to one microplate and anti-Aβ42 monoclonal antibody (12F4) acceptor beads were added to the other. Abundance of Aβ40 and Aβ42 was directly proportional to the luminescent signal generated following excitation of donor beads by laser light.

[4] = test system: Aβ42 peptides generated from SH-SY5Y cells expressing amyloid β protein (SP4CT cells); test: APP processing AlphaLisa assay, secreted Aβ42; details: average of at least >4 replicates, read-out: AB42 IC50 AVG
Protocol: as §1, §2

Row | SMILES | IC50 ([1]; Homo sapiens, HeLa) | EC50 [2] | IC50 ([3]; Homo sapiens, SH-SY5Y) | IC50 ([4]; Homo sapiens, SH-SY5Y) | PXR % Activation @ 10 uM [2] | IC50 [1] | IC50 [3] | IC50 [4]
1 | O=S(=O)(N[C@H]1C[C@](c2cc(F)ccc2F)(S(=O)(=O)c2ccc(Cl)cc2)C1)C(F)(F)F [Example 1, N-[trans-3-[(4-chlorophenyl)sulfonyl]-3-(2,5-difluorophenyl)cyclobutyl]-1,1,1-trifluoromethanesulfonamide] | 50000 nM | 1220 nM | 151 nM | 117 nM | – | – | – | –
2 | N#Cc1ccc(F)cc1[C@]1(S(=O)(=O)c2ccc(Cl)cc2)C[C@@H](NS(=O)(=O)C(F)(F)F)C1 [Example 3, N-[cis-3-[(4-chlorophenyl)sulfonyl]-3-(2-cyano-5-fluorophenyl)cyclobutyl]-1,1,1-trifluoromethanesulfonamide] | 3210 nM | 714 nM | 70.1 nM | 66.1 nM | 92.3% | – | – | –
3 | O=S(=O)(N[C@H]1C[C@@](c2cc(Cl)ccc2Cl)(S(=O)(=O)c2ccc(Cl)cc2)C1)C(F)(F)F [Example 4, N-[cis-3-[(4-chlorophenyl)sulfonyl]-3-(2,5-dichlorophenyl)cyclobutyl]-1,1,1-trifluoromethanesulfonamide] | 1940 nM | 1960 nM | 70.8 nM | 78.2 nM | 70.7% | – | – | –
4 | O=S(=O)(NC1CC(c2cc(F)ccc2F)(S(=O)(=O)c2ccc(C(F)(F)F)cc2)C1)C(F)(F)F (stereo not drawn) [Example 5, N-(cis-3-(2,5-difluorophenyl)-3-{[4-(trifluoromethyl)phenyl]sulfonyl}cyclobutyl)-1,1,1-trifluoromethanesulfonamide] | 3810 nM | 5200 nM | 100 nM | 90.2 nM | 64.4% | – | – | –
5 | O=S(=O)(NC1CC(c2cc(Cl)ccc2F)(S(=O)(=O)c2ccc(Cl)cc2)C1)C(F)(F)F (stereo not drawn) [Example 6, N-{cis-3-(5-chloro-2-fluorophenyl)-3-[(4-chlorophenyl)sulfonyl]cyclobutyl}-1,1,1-trifluoromethanesulfonamide] | 5640 nM | 1990 nM | 130 nM | 106 nM | 79.2% | – | – | –
6 | O=S(=O)(NC1CC(c2cc(F)ccc2F)(S(=O)(=O)c2ccc(F)cc2)C1)C(F)(F)F (stereo not drawn) [Example 7, N-{cis-3-(2,5-difluorophenyl)-3-[(4-fluorophenyl)sulfonyl]cyclobutyl}-1,1,1-trifluoromethanesulfonamide] | 3080 nM | 766 nM | 68.4 nM | 57.6 nM | 113.2% | – | – | –
7 | O=S(=O)(NC1CC(c2cc(F)ccc2F)(S(=O)(=O)c2ccc(F)c(F)c2)C1)C(F)(F)F (stereo not drawn) [Example 8, N-{cis-3-(2,5-difluorophenyl)-3-[(3,4-difluorophenyl)sulfonyl]cyclobutyl}-1,1,1-trifluoromethanesulfonamide] | 3140 nM | 1260 nM | 79.2 nM | 62.8 nM | 82.3% | – | – | –
8 | N#Cc1ccc(S(=O)(=O)C2(c3cc(F)ccc3F)CC(NS(=O)(=O)C(F)(F)F)C2)cc1 (stereo not drawn) [Example 9, N-[cis-3-[(4-cyanophenyl)sulfonyl]-3-(2,5-difluorophenyl)cyclobutyl]-1,1,1-trifluoromethanesulfonamide] | 8900 nM | 8360 nM | 260 nM | 231 nM | 54.9% | – | – | –
9 | O=C(O)CCCN([C@H]1C[C@@](c2cc(F)ccc2F)(S(=O)(=O)c2ccc(Cl)cc2)C1)S(=O)(=O)C(F)(F)F [Example 10, 4-{[cis-3-[(4-chlorophenyl)sulfonyl]-3-(2,5-difluorophenyl)cyclobutyl][(trifluoromethyl)sulfonyl]amino}butanoic acid] | 8320 nM | 1240 nM | 35.2 nM | 30.7 nM | 76.7% | – | – | –
10 | O=S(=O)(N(CCOC1CCCCO1)[C@H]1C[C@@](c2cc(F)ccc2F)(S(=O)(=O)c2ccc(Cl)cc2)C1)C(F)(F)F (stereo partly drawn) [Example 11, N-[cis-3-[(4-chlorophenyl)sulfonyl]-3-(2,5-difluorophenyl)cyclobutyl]-1,1,1-trifluoro-N-[2-(tetrahydro-2-pyran-2-yloxy)ethyl]methanesulfonamide] | 2540 nM | 826 nM | 43.4 nM | 36.9 nM | 86.5% | – | – | –
11 | COC(=O)CN([C@H]1C[C@@](c2cc(F)ccc2F)(S(=O)(=O)c2ccc(Cl)cc2)C1)S(=O)(=O)C(F)(F)F [Example 12, Methyl {[cis-3-[(4-chlorophenyl)sulfonyl]-3-(2,5-difluorophenyl)cyclobutyl][(trifluoromethyl)sulfonyl]amino}acetate] | 13200 nM | 1600 nM | 97.7 nM | 117 nM | – | – | – | –
12 | CN(C1CC(c2cc(F)ccc2F)(S(=O)(=O)c2ccc(Cl)cc2)C1)S(=O)(=O)C(F)(F)F (stereo not shown) [Example 13, N-[3-[(4-chlorophenyl)sulfonyl]-3-(2,5-difluorophenyl)cyclobutyl]-1,1,1-trifluoro-N-methylmethanesulfonamide] | – | 1260 nM | – | – | – | 4810 nM | 18.4 nM | 18.9 nM
13 | CN(C1CC(c2cc(F)ccc2F)(S(=O)(=O)c2ccc(Cl)cc2)C1)S(=O)(=O)C(F)(F)F (stereo not shown) [Example 14, N-[3-[(4-chlorophenyl)sulfonyl]-3-(2,5-difluorophenyl)cyclobutyl]-1,1,1-trifluoro-N-methylmethanesulfonamide] | – | 829 nM | – | – | – | 9860 nM | 89.9 nM | 97.1 nM
14 | COC(=O)CCCN([C@H]1C[C@@](c2cc(F)ccc2F)(S(=O)(=O)c2ccc(Cl)cc2)C1)S(=O)(=O)C(F)(F)F [Example 15, methyl 4-{[cis-3-[(4-chlorophcnyl)sulfonyl]-3-(2,5-difluorophenyl)cyclobutyl][(trifluoromethyl)sulfonyl]amino}butanoate] | 2830 nM | 1210 nM | 51.8 nM | 51.8 nM | – | – | – | –
15 | O=C(O)CN([C@H]1C[C@@](c2cc(F)ccc2F)(S(=O)(=O)c2ccc(Cl)cc2)C1)S(=O)(=O)C(F)(F)F [Example 16, N-[cis-3-[(4-chlorophenyl)sulfonyl]-3-(2,5-difluorophenyl)cyclobutyl]-N-[(trifluoromethyl)sulfonyl]glycine] | 32000 nM | 1010 nM | 96.7 nM | 67.9 nM | 100% | – | – | –

Reference: patent US8759579B2, “Cyclobutyl sulfones as notch sparing gamma secretase inhibitors” (Merck Sharp & Dohme Corp., priority 2008, dated 2014)
